Test results: patent US9932303B2, “N-hydroxymethanesulfonamide nitroxyl donors” (Cardioxyl Pharmaceuticals, Inc., priority 2014, dated 2018)

Key:
[1] = tested on: patients with systolic heart failure; conditions: cited from earlier work
[2] = Nitroxyl production via N2O headspace analysis (GC); conditions: PBS, 37° C.
Text: Nitrous oxide (N2O) is produced via the dimerization and dehydration of HNO, and is the most common marker for nitroxyl production (Fukuto et al., Chem. Res. Toxicol. 18:790-801 (2005)). […] Using either nitrous oxide gas or Angeli's salt (AS) as a standard, the relative amounts of N2O released from N-hydroxymethanesulfonamide nitroxyl donating compounds was examined via gas chromatography (GC) headspace analysis.
A procedure for determining the relative amounts of N2O released from N-hydroxymethanesulfonamide nitroxyl donating compounds is as follows. GC was performed on an Agilent gas chromatograph equipped with a split injector (10:1 splitting), microelectron capture detector, and a HP-MOLSIV 30 m×0.32 mm×25 μm molecular sieve capillary column. Helium was used as the carrier (4 mL/min) gas and nitrogen was used as the make-up (20 mL/min) gas. […]
All determinations used a batch of nominal 20 mL headspace vials with volumes pre-measured for sample uniformity (actual vial volume varied by ≤2.0% relative standard deviation (n=6)). The average vial volume for the batch was determined from six randomly-selected vials by calculating the weight difference between the capped and sealed empty (i.e., air-filled) vial and the capped and sealed deionized water-filled vial using the known density of deionized water, then averaging. […]

[3] = In vitro stability in dog plasma; assay type: in vitro ADME; conditions: pH 7.4, 37° C.; for half-life at 5 μM: male, read-out: T1/2 (minutes) Dog
Method: (§1) Certain compounds from Table 1 were tested for their stability in plasma. The assay system comprised (i) PBS, or plasma from rat, dog or human (at least 3 donors, male, pooled) at pH 7.4, and (ii) for tests conducted in plasma, an anticoagulant (sodium heparin or sodium citrate). Each test compound (5 μM) was incubated in PBS or plasma at 37° C. on a THERMOMIXER® with shaking Three samples (n=3) were taken at each of seven sampling time points: 0, 10, 30, 60, 90, 180 and 360 minutes. The samples were immediately combined with 3 volumes (i.e., 3 times the volume of PBS or plasma) of acetonitrile containing 1% formic acid and an internal standard to terminate the reaction. AB SCIEX API 3000 LC-MS/MS analysis of the test compounds was performed without a standard curve. Half-lives (T1/2) of the test compounds were determined from graphs of the percent remaining values using the peak area response ratio.

[4] = In vitro stability in rat plasma; assay type: in vitro ADME; conditions: pH 7.4, 37° C.; for half-life at 5 μM: male, read-out: T1/2 (minutes) Rat
Method: as §1

[5] = In vitro stability in human plasma; assay type: in vitro ADME; conditions: pH 7.4, 37° C.; for half-life at 5 μM: male, read-out: T1/2 (minutes) Human
Method: as §1

Row | SMILES | half-life at 5 μM [3] | melting point | half-life at 5 μM [4] | half-life at 5 μM [5] | other results
1 | CS(=O)(=O)c1ccccc1S(=O)(=O)NO [CXL-1020, N-hydroxy-2-methanesulfonylbenzene-1-sulfonamide] | – | – | – | – | side effects ([1]; at threshold doses needed to produce hemodynamic effects, intravenous): unacceptable levels of inflammatory irritation at and distal to the intravenous insertion site; hemodynamic effects ([1]; patients with systolic heart failure, intravenously as an aqueous solution at pH=4): reduced both left and right heart filling pressures and systemic vascular resistance, while increasing cardiac and stroke volume index
2 | O=S(=O)(Cc1ccc(F)cc1)NO [Compound 6, 1-(4-Fluorophenyl)-N-hydroxymethanesulfonamide] | 34 min | 158 °C | – | – | –
3 | O=S(=O)(Cc1ccc(F)cc1F)NO [Compound 8, 1-(2,4-Difluorophenyl)-N-hydroxymethanesulfonamide] | 46 min | 166 °C | 36 min | 31 min | –
4 | O=S(=O)(Cc1cc(F)ccc1F)NO [Compound 9, 1-(2,5-Difluorophenyl)-N-hydroxymethanesulfonamide] | 30 min | 125 °C | – | – | –
5 | O=S(=O)(Cc1cc(Cl)ccc1Cl)NO [Compound 10, 1-(2,5-Dichlorophenyl)-N-hydroxymethanesulfonamide] | 27 min | 158 °C | 12 min | 12 min | –
6 | O=S(=O)(Cc1ccc(Cl)cc1Cl)NO [Compound 11, 1-(2,4-Dichlorophenyl)-N-hydroxymethanesulfonamide] | 45 min | 158 °C | – | – | –
7 | O=S(=O)(Cc1ccc(Cl)c(Cl)c1)NO [Compound 12, 1-(3,4-Dichlorophenyl)-N-hydroxymethanesulfonamide] | 60 min | 175 °C | 54 min | 34 min | –
8 | O=S(=O)(Cc1ccc(Br)cc1)NO [Compound 16, 1-(4-Bromophenyl)-N-hydroxymethanesulfonamide] | 42 min | 160 °C | – | – | –
9 | O=S(=O)(Cc1cccc(C(F)(F)F)c1)NO [Compound 17, N-Hydroxy-1-[3-(trifluoromethyl)phenyl]methanesulfonamide] | 29 min | 132 °C | – | – | –
10 | O=S(=O)(Cc1ccc(C(F)(F)F)cc1)NO [Compound 18, N-Hydroxy-1-[4-(trifluoromethyl)phenyl]methanesulfonamide] | 74 min | 156 °C | 42 min | 33 min | –
11 | O=S(=O)(Cc1cc(F)cc(F)c1)NO [Compound 20, 1-(3,5-Difluorophenyl)-N-hydroxymethanesulfonamide] | 33 min | 136 °C | – | – | –
12 | O=S(=O)(Cc1c(Cl)cccc1Cl)NO [Compound 21, 1-(2,6-Dichlorophenyl)-N-hydroxymethanesulfonamide] | – | 140 °C | – | – | –
13 | CC(c1ccc(Cl)cc1)S(=O)(=O)NO (centres unmarked) [Compound 27, 1-(4-Chlorophenyl)-N-hydroxyethanesulfonamide] | – | 129 °C | – | – | –
14 | CC(C)(c1ccc(Cl)cc1)S(=O)(=O)NO [Compound 28, 2-(4-Chlorophenyl)-N-hydroxypropane-2-sulfonamide] | – | – | – | – | T1/2 (minutes) Rat ([4]; 5 μM): 48 min; T1/2 (minutes) Dog ([3]; 5 μM): 26 min; T1/2 (minutes) Human ([5]; 5 μM): 37 min
15 | O=S(=O)(NO)C1(c2ccc(Cl)cc2)CC1 [Compound 29, 1-(4-Chlorophenyl)-N-hydroxycyclopropane-1-sulfonamide] | – | 138 °C | – | – | –

The next lines start with results.

Row | half-life at 5 μM [3] | melting point | half-life at 5 μM [4] | half-life at 5 μM [5] | SMILES | other results
16 | 26 min | 163 °C | – | – | O=[N+]([O-])c1ccccc1CS(=O)(=O)NO [Compound 1, N-Hydroxy-1-(2-nitrophenyl)methanesulfonamide] | Relative N2O Yield (90 minute incubation) [2]: 37%
17 | 70 min | 150 °C | 40 min | 52 min | O=S(=O)(Cc1cccc(Cl)c1)NO [Compound 3, 1-(3-Chlorophenyl)-N-hydroxymethanesulfonamide] | –
18 | 36 min | 124 °C | 38 min | 28 min | O=S(=O)(Cc1ccccc1Cl)NO [Compound 4, 1-(2-Chlorophenyl)-N-hydroxymethanesulfonamide] | –
19 | 55 min | 98 °C | 61 min | 81 min | Cc1cccc(CS(=O)(=O)NO)c1 [Compound 5, N-Hydroxy-1-(3-methylphenyl)methanesulfonamide] | –
20 | 25 min | 123 °C | – | – | O=S(=O)(Cc1ccccc1C(F)(F)F)NO [Compound 7, N-Hydroxy-1-[2-(trifluoromethyl)phenyl]methanesulfonamide] | –
21 | 42 min | 109 °C | – | – | O=S(=O)(Cc1cccc(F)c1)NO [Compound 13, 1-(3-Fluorophenyl)-N-hydroxymethanesulfonamide] | –
22 | 31 min | 118 °C | – | – | O=S(=O)(Cc1ccccc1F)NO [Compound 14, 1-(2-Fluorophenyl)-N-hydroxymethanesulfonamide] | –
23 | 45 min | 161 °C | – | – | O=S(=O)(Cc1cccc(Br)c1)NO [Compound 15, 1-(3-Bromophenyl)-N-hydroxymethanesulfonamide] | –
24 | – | 127 °C | – | – | O=S(=O)(Cc1c(F)cccc1Cl)NO [Compound 19, 1-(2-Chloro-6-fluorophenyl)-N-hydroxymethanesulfonamide] | –
25 | 21 min | 143 °C | 18 min | 25 min | O=S(=O)(Cc1noc2ccccc12)NO [Compound 22, 1-1,2-Benzoxazol-3-yl-N-hydroxymethanesulfonamide] | –
26 | – | 117 °C | – | – | O=S(=O)(Cc1ccc2oncc2c1)NO [Compound 26, 1-(Benzo[d]isoxazol-5-yl)-N-hydroxymethanesulfonamide] | –
